{
  "source": "patent US20090280483A1",
  "about": "“Methods for Screening Interleukin-6 (IL-6) Signal Transduction Inhibitors” (priority 2005, published 2009)",
  "key": {"KT-3 cells": {"test_system": "KT-3 cells", "experiment": "Negative screening: IL-6-dependent proliferation of KT-3 cells (FACS)", "assay_type": "cell-based", "settings": "10 μM (No. 4 at 2 μM), human IL-6 5 ng/ml, 48 hours", "procedure": "Human tumor cell line KT-3 cells known to have the property of proliferating by IL-6 stimulation were used for negative screening.\nKT-3 cells were grown to confluency, and plated on 6-well plates at 1×10^5 cells/well in RPMI medium supplemented with 10% fetal calf serum (FCS) containing human IL-6 (5 ng/ml). After incubation for 3 hours, dimethyl sulfoxide (DMSO) and the 18 compounds (Nos. 1-18) each at a final concentration of 10 μM (except for No. 4 at 2 μM) were added, and incubation was continued for 48 hours.\nThe human tumor cell line KT-3 cells treated as above were suspended at about 1×10^6 cells/100 μl in RPMI medium supplemented with 10% FCS. Then, FSC/SSC dot plots of these cells were obtained by using FACS Calibur (Becton Dickinson)."}, "STAT3 [1]": {"target": "T1, STAT3 (Homo sapiens, UniProt P40763)", "T1 construct": "Exponentially proliferating 293T cells cultured in Dulbecco's Modified Eagle's Medium; endogenous in cells; host or cells: 293T cells", "T1 sequence (P40763 whole entry)": "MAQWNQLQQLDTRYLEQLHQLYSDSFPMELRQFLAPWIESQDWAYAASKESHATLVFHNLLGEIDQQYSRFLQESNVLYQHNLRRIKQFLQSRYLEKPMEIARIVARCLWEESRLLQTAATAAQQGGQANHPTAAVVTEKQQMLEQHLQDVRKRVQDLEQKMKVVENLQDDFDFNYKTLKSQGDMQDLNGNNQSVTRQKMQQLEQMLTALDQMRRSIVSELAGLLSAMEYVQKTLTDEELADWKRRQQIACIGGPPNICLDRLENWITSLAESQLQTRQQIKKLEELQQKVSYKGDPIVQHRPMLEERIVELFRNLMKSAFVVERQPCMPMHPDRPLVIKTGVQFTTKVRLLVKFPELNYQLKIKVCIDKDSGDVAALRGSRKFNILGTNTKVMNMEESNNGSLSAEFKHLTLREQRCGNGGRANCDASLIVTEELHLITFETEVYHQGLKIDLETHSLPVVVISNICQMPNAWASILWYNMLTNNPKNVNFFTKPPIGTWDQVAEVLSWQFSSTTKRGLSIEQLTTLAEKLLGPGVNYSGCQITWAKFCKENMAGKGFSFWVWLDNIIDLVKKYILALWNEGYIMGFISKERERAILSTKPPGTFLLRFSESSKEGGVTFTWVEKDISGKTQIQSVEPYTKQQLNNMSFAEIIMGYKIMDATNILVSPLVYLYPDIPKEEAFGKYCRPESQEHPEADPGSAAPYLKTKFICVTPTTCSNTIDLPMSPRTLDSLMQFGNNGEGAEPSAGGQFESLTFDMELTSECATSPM", "experiment": "Western blotting of IL-6-induced tyrosine phosphorylation of STAT3 in 293T cells", "assay_type": "cell-based", "settings": "20 μM for 1 hour, then IL-6 10 ng/ml for 16 hours", "procedure": "Exponentially proliferating 293T cells cultured in Dulbecco's Modified Eagle's Medium (DMEM) supplemented with 10% fetal calf serum (FCS) in culture dish were incubated with dimethyl sulfoxide (DMSO) and Compounds No. 1, 2, 4, 7, 10, 13, 14 or 16 at a final concentration of 20 μM for 1 hour. Then, the cells were divided into two equal parts and incubated with or without murine IL-6 at a final concentration of 10 ng/ml for further 16 hours. Then, the 293T cells were suspended at a density of 1×10^7 cells/ml in lysis buffer, and placed on ice for 30 minutes. The precipitate was removed by centrifuging the cell lysate at 12000 g for 15 minutes.\nThe subsequent Western blot step was performed by the method described above."}, "ERK1/2": {"test_system": "ERK1/2", "experiment": "Western blotting of IL-6-induced phosphorylation of ERK1/2 in M1 cells", "assay_type": "cell-based", "settings": "murine IL-6 10 ng/ml, time course 0 to 24 hours"}, "STAT3 [2]": {"target": "T1, STAT3", "experiment": "Luciferase assay of IL-6-induced transcriptional activity of STAT3 in 293T cells", "assay_type": "cell-based", "settings": "GFAP promoter firefly luciferase reporter, 20 μM for 1 hour, then human IL-6 10 ng/ml for 16 hours", "procedure": "A reporter vector (2 μg) containing the firefly luciferase gene linked downstream of the glial fibrillary acidic protein (GFAP) gene promoter sequence and an internal control vector (0.1 μg) containing the EF1 gene promoter linked to the Renilla luciferase gene were transfected into 293T cells at 1×10^6 cells/well in 12-well plates using Lipofectamine Plus Reagent (Life Technologies, Bethesda, Md.) as instructed by the manufacturer. Twenty-three hours after the transfection, dimethyl sulfoxide (DMSO) and Compounds No. 1, 2, 4, 7, 10, 13, 14 and 16 each at a final concentration of 20 μM were added. One hour after the compounds were added, the cells treated with each compound were divided into two equal parts and stimulated or not with human IL-6 at a final concentration of 10 ng/ml. After 16 hours, cell extracts were prepared from the cells and measured for the specific activity of firefly luciferase to Renilla luciferase using Dual luciferase reporter system (Promega, Madison, Wis.)."}, "STAT3 [3]": {"target": "T2, STAT3 (Mus musculus, UniProt P42227)", "T2 construct": "Exponentially proliferating M1 cells cultured in RPMI medium; endogenous in cells; host or cells: M1 cells", "T2 sequence (P42227 whole entry)": "as the sequence (P40763 whole entry) above, with E760D counted along it", "experiment": "Western blotting of IL-6-induced tyrosine phosphorylation of STAT3 in M1 cells", "assay_type": "cell-based, murine", "procedure": "Exponentially proliferating M1 cells cultured in RPMI medium supplemented with 10% fetal calf serum (FCS) in culture dish were treated with dimethyl sulfoxide (DMSO) and Compound No. 1, 2, 7, 10, 13, 14 or 16 at a final concentration of 10 μM for 30 minutes. Then, the cells were divided into two equal parts and incubated with or without murine IL-6 at a final concentration of 10 ng/ml for further 1 hour. Then, the M1 cells were suspended at a density of 1×10^7 cells/ml in lysis buffer (0.5% Triton X-100, 50 mM Tris-HCl, (pH7.5), 0.1 mM EDTA, 150 mM NaCl, 200 μM Na3VO4, 50 mM NaF, 1 mM dithiothreitol (DTT), 0.4 mM phenylmethylsulfonyl fluoride (PMSF), 3 μg/mL aprotinin, 2 μg/mL pepstatin A, 1 μg/mL leupeptin) and placed on ice for 30 minutes. The precipitate was removed by centrifuging the cell lysate at 12000 g for 15 minutes.\nThe samples thus obtained were separated by sodium dodecyl sulfate-polyacrylamide gel electrophoresis (SDS-PAGE). After the electrophoresis, the gel was placed on a PVDF transfer membrane prewetted in methanol for 10-20 seconds and then soaked in transfer buffer (25 mM tris, 192 mM glycine, 10% methanol, 0.1% SDS), and the assembly was sandwiched between two layers each consisting of 5 sheets of filter paper soaked in transfer buffer, whereby proteins were transferred to the transfer membrane using a semi-dry transfer method.\nAfter transfer, the transfer membrane was shaken in blocking buffer (5% BSA, 1% BSA, 0.1% NaN3) for 30 minutes or more. Then, the membrane was washed with PBST (137 mM NaCl, 2.7 mM KCl, 1.5 mM KH2PO4, 8.1 mM Na2HPO4, 0.05% Tween20) three times for 5 minutes by shaking. The membrane was shaken for 60 minutes in an anti-STAT3 polyclonal antibody (C-20, Santa Cruz Biotechnology, Santa Cruz, Calif.) and an anti-phosphorylated STAT3 monoclonal antibody (B-7, Santa Cruz Biotechnology) as primary antibodies both diluted 1:1000 in PBST.\nThen, the membrane was washed with PBST three times for 5 minutes by shaking. […]"}},
  "data": [
    {"smiles": "Br.O=[N+]([O-])c1ccc(-c2csc(Nc3cc(C(F)(F)F)cc(C(F)(F)F)c3)n2)cc1", "note": "[Compound No. 1]", "values": [
      {"measurement": "inhibition of IL-6-dependent proliferation of KT-3 cells", "setting": "KT-3 cells", "result": "inhibition of cell proliferation"}
    ]},
    {"smiles": "Br.O=[N+]([O-])c1ccc(-c2csc(Nc3cc(C(F)(F)F)cc(C(F)(F)F)c3)n2)cc1", "note": "[Compound No. 2]", "values": [
      {"measurement": "inhibition of tyrosine phosphorylation of STAT3", "setting": "STAT3 [1]", "result": "obvious inhibition"},
      {"measurement": "influence on the phosphorylation of ERK1/2 induced by IL-6", "setting": "ERK1/2", "result": "no influence"},
      {"measurement": "inhibitory effect on the transcriptional activity of STAT3", "setting": "STAT3 [2]", "result": "obvious inhibitory effect"},
      {"measurement": "inhibition of tyrosine phosphorylation of STAT3 (time course)", "setting": "STAT3 [3]; murine IL-6 10 ng/ml, at 3, 6, and 24 hours after the compound was added", "result": "obvious inhibition"}
    ]},
    {"smiles": "Br.O=[N+]([O-])c1ccc(-c2csc(Nc3cc(C(F)(F)F)cc(C(F)(F)F)c3)n2)cc1", "note": "[compound 13]", "values": [
      {"measurement": "inhibition of tyrosine phosphorylation of STAT3", "setting": "STAT3 [3]; 10 μM for 30 minutes, then murine IL-6 10 ng/ml for 1 hour", "result": "obvious inhibition"},
      {"measurement": "inhibition of tyrosine phosphorylation of STAT3 (time course)", "setting": "STAT3 [3]; 10 μM, IL-6 10 ng/ml, at 3 hours or later after the compounds were added", "result": "inhibition"}
    ]}
  ]
}
